Results: US7084176B2, “N-arylphenylacetamide derivatives and medicinal compositions containing the same” (Dainippon Pharmaceutical Co., Ltd., priority 2001, dated 2006)
Like-named read-outs stand apart in the source and are kept apart here.

System: male Std:ddY mice
Assay: Phenyl-1,4-benzoquinone-induced writhing test
Type: in vivo
Settings: for inhibition in vivo at 1 mg/kg / ED50 / inhibition in vivo at 10 mg/kg: Mus musculus; for inhibition in vivo at 1 mg/kg / inhibition in vivo at 10 mg/kg: 1 h, read-out: Inhibitory percentage (%); for inhibition in vivo at 1 mg/kg: subcutaneously administered at a dose of 1 mg/kg; for inhibition in vivo at 1 mg/kg / inhibition in vivo at 10 mg/kg / Inhibitory percentage (%): 60 minutes before PBQ; for ED50 / ED50 (mg/kg po) / Inhibitory percentage (%): writhing inhibition; for ED50 / ED50 (mg/kg po): logit analysis; for inhibition in vivo at 10 mg/kg / Inhibitory percentage (%): orally administered at a dose of 10 mg/kg
Experimental: Phenyl-1,4-benzoquinone-induced Writhing Test Referring to the method disclosed in Proc. Soc. exp. Biol. […] For oral administration, a test compound was suspended in 0.5% tragacanth solution. […] In the control group, a physiological saline solution containing 10% Tween 80 and 10% ethanol was administered in the case of subcutaneous administration, or a 0.5% tragacanth solution was administered in the case of oral administration. The number of writhing movements in the test compound-treated group was compared with that in the control group, and the writhing inhibitory percentage was calculated therefrom and considered as an analgesic effect. Writhing inhibitory percentage (%)=[(A−B)/A]×100 In the above equation, A means the number of writhing movements in the control group, and B means the number of writhing movements in the test compound-treated group. From the writhing inhibitory percentage of the test compound, ED50 (mg/kg) was calculated by logit analysis.

[1] = po, oral administration, read-out: ED50 (mg/kg po)

COc1cc(CC(=O)Nc2cccc(N3CCCC(C)C3)c2)ccc1O (stereo not drawn) [Example 88, N-[3-(3-methylpiperidin-1-yl)phenyl]-4-hydroxy-3-methoxyphenylacetamide]
inhibition in vivo at 1 mg/kg (sc): 76.6%

COc1cc(CC(=O)Nc2cccc(-c3ccc(Cl)s3)c2)ccc1O [Example 100, 4-hydroxy-3-methoxy-N-[3-(2-chlorothiophen-5-yl)phenyl]-phenylacetamide]
inhibition in vivo at 1 mg/kg (sc): 100%

COc1cc(CC(=O)Nc2cccc(-c3cccn3C(=O)OC(C)(C)C)c2)ccc1O [Example 101, 4-hydroxy-3-methoxy-N-[3-(1-tert-butoxycarbonylpyrrol-2-yl)-phenyl]phenylacetamide]
inhibition in vivo at 1 mg/kg (sc): 100% | ED50 (sc, subcutaneous administration, read-out: ED50 (mg/kg sc)): 0.23 mg/kg

COc1cc(CC(=O)Nc2cccc(CCC3CCCCC3)c2)ccc1O [Example 114, 4-hydroxy-3-methoxy-N-[3-(2-cyclohexylethyl)phenyl]phenylacetamide]
inhibition in vivo at 1 mg/kg (sc): 98%

COc1cc(CC(=O)Nc2cccc(-c3ccccc3C3CCCCC3)c2)ccc1OCCN [Example 122, 4-(2-aminoethoxy)-N-[3-(2-cyclohexylphenyl)phenyl]-3-methoxyphenylacetamide]
inhibition in vivo at 10 mg/kg (po): 99% | ED50 [1]: ≤ 1 mg/kg | ED50 (mg/kg po) (oral administration, listed as Ex. 122): 0.58 mg/kg

COc1cc(CC(=O)Nc2cccc(-c3ccccc3F)c2)ccc1OCCN [Example 123, 4-(2-aminoethoxy)-N-[3-(2-fluorophenyl)phenyl]-3-methoxyphenylacetamide]
inhibition in vivo at 10 mg/kg (po): 100% | ED50 [1]: ≤ 1 mg/kg | ED50 (mg/kg po) (oral administration, listed as Ex. 123): 0.76 mg/kg

COc1cc(CC(=O)Nc2cccc(-c3ccc(F)cc3)c2)ccc1OCCN [Example 124, 4-(2-aminoethoxy)-N-[3-(4-fluorophenyl)phenyl]-3-methoxyphenylacetamide]
inhibition in vivo at 10 mg/kg (po): 100% | ED50 [1]: ≤ 1 mg/kg | ED50 (mg/kg po) (oral administration, listed as Ex. 124): 0.71 mg/kg

COc1cc(CC(=O)Nc2cccc(-c3ccccc3Cl)c2)ccc1OCCN [Example 125, 4-(2-aminoethoxy)-N-[3-(2-chlorophenyl)phenyl]-3-methoxyphenylacetamide]
inhibition in vivo at 10 mg/kg (po): 93% | ED50 [1]: ≤ 1 mg/kg | ED50 (mg/kg po) (oral administration, listed as Ex. 125): 0.71 mg/kg

COc1cc(CC(=O)Nc2cccc(-c3cccc(Cl)c3)c2)ccc1OCCN [Example 126, 4-(2-aminoethoxy)-N-[3-(3-chlorophenyl)phenyl]-3-methoxyphenylacetamide]
inhibition in vivo at 10 mg/kg (po): 89.9% | ED50 [1]: 2.19 mg/kg

COc1cc(CC(=O)Nc2cccc(-c3cc(F)cc(F)c3)c2)ccc1OCCN [Example 129, 4-(2-aminoethoxy)-N-[3-(3,5-difluorophenyl)phenyl]-3-methoxyphenylacetamide]
inhibition in vivo at 10 mg/kg (po): 76.9% | ED50 [1]: 1.89 mg/kg

COc1cc(CC(=O)Nc2cccc(-c3ccccc3C)c2)ccc1OCCN [Example 131, 4-(2-aminoethoxy)-3-methoxy-N-[3-(2-methylphenyl)phenyl]-phenylacetamide]
inhibition in vivo at 10 mg/kg (po): 100% | ED50 [1]: 1.1 mg/kg

COc1cc(CC(=O)Nc2cccc(-c3c(C)cc(C)cc3C)c2)ccc1OCCN [Example 133, 4-(2-aminoethoxy)-3-methoxy-N-[3-(2,4,6-trimethylphenyl)-phenyl]phenylacetamide]
inhibition in vivo at 10 mg/kg (po): 94% | ED50 [1]: 1.28 mg/kg

COc1cc(CC(=O)Nc2cccc(-c3cccc(C(C)C)c3)c2)ccc1OCCN [Example 136, 4-(2-aminoethoxy)-N-[3-(3-isopropylphenyl)phenyl]-3-methoxyphenylacetamide]
inhibition in vivo at 10 mg/kg (po): 99% | ED50 [1]: 3.11 mg/kg

COc1cc(CC(=O)Nc2cccc(-c3ccc(C(F)(F)F)cc3)c2)ccc1OCCN [Example 140, 4-(2-aminoethoxy)-3-methoxy-N-[3-(4-trifluoromethylphenyl)-phenyl]phenylacetamide]
inhibition in vivo at 10 mg/kg (po): 91% | ED50 [1]: 2.18 mg/kg

COc1cc(CC(=O)Nc2cccc(-c3ccccc3C(F)(F)F)c2)ccc1OCCN [Example 142, 4-(2-aminoethoxy)-3-methoxy-N-[3-(2-trifluoromethylphenyl)-phenyl]phenylacetamide]
inhibition in vivo at 10 mg/kg (po): 98.9% | ED50 [1]: 1.19 mg/kg

COc1cc(CC(=O)Nc2cccc(-c3ccccc3-c3ccccc3)c2)ccc1OCCN [Example 143, 4-(2-aminoethoxy)-3-methoxy-N-[3-(2-phenylphenyl)phenyl]-phenylacetamide]
inhibition in vivo at 10 mg/kg (po): 73.2% | ED50 [1]: 3.72 mg/kg

COc1cc(CC(=O)Nc2cccc(-c3cccc(-c4ccccc4)c3)c2)ccc1OCCN [Example 145, 4-(2-aminoethoxy)-3-methoxy-N-[3-(3-phenylphenyl)phenyl]-phenylacetamide]
inhibition in vivo at 10 mg/kg (po): 85.9%

COC(=O)c1cccc(-c2cccc(NC(=O)Cc3ccc(OCCN)c(OC)c3)c2)c1 [Example 146, 4-(2-aminoethoxy)-N-[3-(3-methoxycarbonylphenyl)phenyl]-3-methoxyphenylacetamide]
inhibition in vivo at 10 mg/kg (po): 76.9% | ED50 [1]: 2.68 mg/kg

COc1cc(CC(=O)Nc2cccc(-c3cccc(OC(F)(F)F)c3)c2)ccc1OCCN [Example 150, 4-(2-aminoethoxy)-3-methoxy-N-[3-(3-trifluoromethoxyphenyl)-phenyl]phenylacetamide]
inhibition in vivo at 10 mg/kg (po): 100% | ED50 [1]: 1.32 mg/kg

COc1cc(CC(=O)Nc2cccc(-c3ccccc3SC)c2)ccc1OCCN [Example 158, 4-(2-aminoethoxy)-3-methoxy-N-[3-(2-methylthiophenyl)-phenyl]phenylacetamide]
inhibition in vivo at 10 mg/kg (po): 95.1% | ED50 [1]: 2.12 mg/kg

COc1cc(CC(=O)Nc2cccc(-c3ccsc3)c2)ccc1OCCN [Example 161, 4-(2-aminoethoxy)-3-methoxy-N-[3-(thiophen-3-yl)phenyl]-phenylacetamide]
inhibition in vivo at 10 mg/kg (po): 79.4% | ED50 [1]: 2.79 mg/kg

COc1cc(CC(=O)Nc2cccc(-c3cccc4ccccc34)c2)ccc1OCCN [Example 163, 4-(2-aminoethoxy)-3-methoxy-N-[3-(naphthalen-1-yl)phenyl]-phenylacetamide]
inhibition in vivo at 10 mg/kg (po): 87.9% | ED50 [1]: 1.61 mg/kg

COc1cc(CC(=O)Nc2cccc(-c3cc4ccccc4o3)c2)ccc1OCCN [Example 166, 4-(2-aminoethoxy)-N-[3-(benzofuran-2-yl)phenyl]-3-methoxyphenylacetamide]
inhibition in vivo at 10 mg/kg (po): 96% | ED50 [1]: 2.4 mg/kg

COc1cc(CC(=O)Nc2cccc(-c3cccc(C(C)(C)C)c3)c2)ccc1OCCN [Example 169, 4-(2-aminoethoxy)-N-[3-(3-tert-butylphenyl)phenyl]-3-methoxyphenylacetamide]
inhibition in vivo at 10 mg/kg (po): 100% | ED50 [1]: 1.29 mg/kg

COc1cc(CC(=O)Nc2cc(-c3ccccc3)ccc2F)ccc1OCCN [Example 170, 4-(2-aminoethoxy)-N-[(2-fluoro-5-phenyl)phenyl]-3-methoxyphenylacetamide]
ED50 (mg/kg po) (oral administration): 1.06 mg/kg | Inhibitory percentage (%): 87.9%

COc1cc(CC(=O)Nc2cc(-c3ccccc3)cc(F)c2OC)ccc1OCCN [Example 171, 4-(2-aminoethoxy)-N-[(2-methoxy-3-fluoro-5-phenyl)phenyl]-3-methoxyphenylacetamide]
ED50 (mg/kg po) (oral administration, listed as Ex. 171): 0.96 mg/kg | Inhibitory percentage (%): 94.0%

COc1cc(CC(=O)Nc2cc(-c3ccccc3)ccc2C)ccc1OCCN [Example 172, 4-(2-aminoethoxy)-N-[(2-methyl-5-phenyl)phenyl]-3-methoxyphenylacetamide]
ED50 (mg/kg po) (oral administration): 4.42 mg/kg | Inhibitory percentage (%): 75.9%
